Laboratory results published in patent US9671340B2, “Measurement method for determining an organ function” (SMARTDYELIVERY GMBH, priority 2010, dated 2017).
Where two headings read alike, the source gives them in different places.

Assays:
[1] = rat, in vivo
Experimental: (§1) Male WISTAR rats (12-16 weeks old, body mass 400±50 g; Harlan Laboratories, Horst, Netherlands) were used in this study. All tests were carried out in accordance with the German laws for the protection of animals and with the approval of the regional animal protection commission in Bad Langensalza, Thuringia, Germany. The body temperature was kept constant at 37° during the surgical preparation and the experimental tests, in each case using a warming plate and a heatable specimen stage of the microscope. All preparations were carried out under aseptic conditions.
A special model of polymicrobial sepsis with some modifications was used, which was originally described by Bauhofer (Bauhofer et al., 2004, 2006; Lorenz et al., 2004). With this model the sepsis is induced by peritoneal contamination and infection (PCI).
A standardised human stool inoculum was used for the PCI. Immediately after collection, the stool sample was diluted 1:1 with pre-reduced thioglycolate-bouillion, containing 10% sterile barium sulphate and 10% glycerol, and was then homogenised under anaerobic conditions. Lastly, the stool samples were stored at −80° C. until use. Before the inoculation, the stool samples were diluted 1:4 in 0.9% NaCl. The inoculum was analysed microbiologically in order to establish the number of strains after storage. The rats were instrumented 24 h before the PCI and anaesthetised using Desflurane (Baxter, Munich, Germany) via a facemask. A jugular vein catheter (polyethylene, autoclave-sterilised, OD:1.0 mm, Portex, UK) was used for the fluid replacement and was tunneled subcutaneously as far as the approach to the nape of the neck. The catheter was mounted on a hinge-jointed retaining system, which enabled unrestricted movement in the cage after recovery from the anaesthetic.
In introductory studies, the dose of the inoculum was adapted such that a 100% mortality rate was achieved within 40 h. The animals were assigned randomly to the control group (sham) or the PCI group. With short ether anaesthesia, the inoculum was injected intraperitoneally into the pelvis region using a 21 G cannula. The animals in the control group (sham) received 0.9% NaCl in the same amount. After the procedure, both groups received fluid replacement (10 ml/kg/KG/h, Jonosteril®, Fresenius Kabi GmbH, Germany) as well as food and water ad libitum.
The plasma disappearance rate (PDR) and the bile excretion of the dyes DY635 (Dyomics, Jena, Germany) and indocyanine green as a comparative experiment (ICG; Pulsion, Munich, Germany) were determined in vivo.
The animals were anaesthetised 15 h after sepsis or induction of the control group.
An arterial catheter was used for haemodynamic monitoring. A midline and right subcostal laparotomy was performed and the ductus choledochus was provided with a polyethylene catheter (polyethylene, autoclave-sterilised, OD:1.0 mm, Portex, UK) for the collection of bile via a cannula. The wound was then closed using Mersilene 2-0 (Ethicon, Hamburg, Germany) and the anaesthetisation was maintained.
The dye was administered via a jugular vein catheter. The blood samples and bile samples were taken from the zero point and then every 15 min for a period of 60 min. Blood losses caused by these blood samples were adequately counter balanced by infusions. The haemodynamic monitoring was carried out continuously.

[2] = In vivo determination of hepatocellular and canalicular transport by intravital epifluorescence microscopy of the liver; set-up: species or system WISTAR rats; settings: periportal and perivenous areas, up to 35 min after application
Experimental: Changes to the hepatocellular uptake and the canalicular elimination were measured 15 h after sepsis or induction of the control group by in vivo imaging of the exclusively hepatocytically eliminated dye indocyanine green (Pulsion, Munich, Germany) and of DY635 using an inverted epiflourescence microscope (AxioObserver® Z1; Zeiss, Jena, Germany), equipped with a computer-controlled, highly-precise scanning platform (Marzhäuser, Wetzlar, Germany).
775 nm to 805 nm excitation and 845 nm to 855 nm emission bandpass filters were used to image the dye indocyanine green. […]
In order to locate 16 regions (regions of interest: ROI) for the in vivo imagings of the dye, the liver surface was rasterised; 8 pericentral and 8 periportal regions were established and the exact position thereof was determined on the computer-controlled scanning stage using AxioVision® software and stored so that the predefined ROI were accessible during future experiments. […]
Before the indocyanine green or DY635 was added, base line images of the defined ROI were recorded using the AxioVision® multi-channel module (×40/0.6 lens, 365 nm to 395 nm excitation and 445 nm to 450 nm emission bandpass filter and 775 nm to 805 nm excitation and 845 nm to 855 nm emission bandpass filter). […]

cultivated hepatocytes = experiment: Cytotoxicity, survival of cultivated hepatocytes 24 h after addition of dye (MTT assay); type: cell-based
Experimental: FIG. 6: comparison of the cytotoxicity between ICG and DY635. In each case the survival of cultivated hepatocytes 24 h after addition of different concentration of the dyes is shown (MTT assay).

[3] = In vivo determination of kidney function, imaging of dye excretion via the kidneys; set-up: species or system WISTAR rats
Experimental: as §1
Further experiments were carried out to ascertain kidney function using DY652 (data not shown here) and DY647.
The kidney tissue and the widely ramified kidney vascular system can be seen in the recorded images.
FIG. 7: in vivo imaging of the excretion of DY647 via the kidneys.

[4] = Water solubility of the dye; type: physicochemical
[5] = cited from earlier work
[6] = at clinically conventional dose; cited from earlier work

For `CC(C)(C)c1cc(/C=C/C=C2/N(CCCCCC(=O)O)c3ccc(S(=O)(=O)O)cc3C2(C)C)c2cc3c4c(c2[o+]1)CCCN4CCC3` [DY635], the “plasma concentration of the dye immediately after application, septic vs control animals” value ([1]; male, Wistar) was “Less DY635 in the plasma was traceable in the healthy animals than in the sick animals”, the “time to complete uptake of the dye into the hepatocytes” value ([1]; male, Wistar) was at most 15 min and the “accumulation of the dye in healthy animals, compared with ICG” value [1] was “accumulates much less considerably in healthy animals than ICG”. For the same compound, the “detection of the dye in the kidneys or in the urine” value [1] was “could not be detected”, the “speed of canalicular excretion into the bile fluid, compared with ICG” value [1] was “excreted more quickly” and the “decrease of specific fluorescence intensity (dye concentration) in the organ tissue, compared with ICG” value [2] was “decreases much more sharply”. For the same compound, the “cytotoxicity in comparison with ICG” value (cultivated hepatocytes) was “very low cytotoxicity”.

For `CCN1/C(=C/C=C/C=C/C2=[N+](CC)c3ccc(S(=O)(=O)O)cc3C2(C)C)C(C)(CCCC(=O)O)c2cc(S(=O)(=O)O)ccc21` (stereo not drawn) [DY647, 2-{(1E,3E)-5-(3-(3-carboxy-propyl)-1-ethyl-3-methyl-5-sulfo-1,3-dihydro-indol-(2E)-ylidene]-penta-1,3-dienyl)-1-ethyl-3,3-dimethyl-5-sulfo-3H-indolium], the “location of the dye in the kidneys” value ([3]; 5 minutes after application) was “can be seen in the vascular system of the kidneys”, the “location of the dye in the kidneys” value ([3]; after 90 minutes) was “has left the vascular system and can be seen in the kidney tubules” and the “detection of the dye in urine after application” value ([3]; after application) was “detected in urine”. The route of excretion ([3]; in vivo measurements of the kidneys) was “excreted selectively via the kidneys” and the solubility in water [4] was “water-soluble”.

In the case of `CC1(C)C(/C=C/C=C/C=C/C=C2\N(CCCCS(=O)(=O)O)c3ccc4ccccc4c3C2(C)C)=[N+](CCCCS(=O)(=O)[O-])c2ccc3ccccc3c21` [ICG, indocyanine green], the “dye concentration in the bile after 60 minutes” value [1] is listed as “high ICG values could still be measured”, the “plasma concentration of the dye immediately after application, septic vs control animals” value [1] is listed as “Less ICG can be traced in the plasma of the septic animals” and the “metabolism and extrahepatic elimination” value ([5]; current state of knowledge) is listed as “neither metabolised nor eliminated extrahepatically”. The “time until the dye appears unconjugated in the bile” value ([5]; following intravenous injection (0.1-0.5 mg/kg KG)) was “approximately 8 min”, the “binding to plasma proteins” value ([5]; following intravenous injection, within a short period of time) was “fully bonded to plasma proteins” and the toxicity [6] was “negligible toxicity”.
